Experiments:
[1] = test system: HBeAg (surrogate marker for cccDNA) in HepDES19 cells; experiment: Engineered HepDES19 primary screen assay (HBeAg ELISA); assay type: cell-based, HBV; details: Hepatitis B virus, HepDES19, 120 h, read-out: IC50 (HBeAg level, HepDES19 primary screen assay), HepDES19 cells, 5 days compound incubation, HBeAg ELISA
Outline: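 IC50 values come from 4-parameter logistic fits of HBeAg ELISA signal, the cccDNA surrogate, with CCK-8 run in parallel for viability. Compounds at half-log dilutions with 1% DMSO were applied for 5 days at 37 °C to HepDES19 cells previously cultured 8 days without Tet.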

[2] = Human microsome stability assay; assay type: in vitro ADME; details: human liver microsomes, 1 μM test compound, 0.5 mg/mL microsomal protein, 37° C., pH 7.4, 0-30 minutes
Outline: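 Parent compound remaining was measured by LC-MS/MS at 0, 3, 6, 9, 15 and 30 min, following ACN quench. Reactions held 1 μM compound and 0.5 mg/mL human liver microsomal protein in pH 7.4 phosphate buffer at 37 °C, started by NADPH regeneration (1 mM NADP, 1 mM MgCl2); controls lacked NADPH.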

[3] = test system: HBsAg in HBV-infected PHH; experiment: Cryopreserved primary human hepatocytes (PHH) HBV infection assay, extracellular HBsAg (CLIA); assay type: cell-based; details: Hepatitis B virus, Hepatocyte, 216 h, read-out: HBsAg IC50, Cryopreserved PHH infected with HBV, 9 days post-compound treatment, extracellular HBsAg
Protocol: This assay is used to confirm the anti-HBV effect of the compounds in HBV PHH infection assay. Cryopreserved PHH (BioreclamationIVT, Lot YJM) was thawed at 37° C. and gently transferred into pre-warmed InVitroGRO HT medium (BioreclamationIVT, Cat. S03317). The mixture was centrifuged at 70 relative centrifugal force (RCF) for 3 minutes at RT, and the supernatant was discarded. Pre-warmed InVitroGRO CP medium (BioreclamationIVT, Cat #S03316) was added to the cell pellet to gently re-suspend cells. The cells were seeded at the density of 5.8×10^4 cells per well to collagen I coated 96-well plate (Gibco, Cat. A1142803) with the InVitroGRO CP medium. All plates were incubated at 37° C. with 5% CO2 and 85% humidity.
At 20 hours after plating, the medium was changed to PHH culture medium (Dulbecco's Modified Eagle Medium (DMEM)/F12 (1:1) (Gibco, Cat. 11320-033), 10% fetal bovine semm (Gibco Cat. 10099141), 100 U/mL penicillin, 100 μg/mL streptomycin (Gibco, Cat. 151401-122), […] (Invitrogen Cat. PHG0311L), 20 ng/mL dexamethasone (Sigma, Cat. D4902) and 250 ng/mL human recombinant insulin (Gibco, Cat. 12585-014)). And the cells were incubated at 37° C. with 5% CO2 and 85% humidity for 4 hours. The medium was then changed to pre-warmed PHH culture medium containing 4% polyethylene glycol (PEG) MW8000 (Sigma, Cat. P1458-50 ML) and 1% DMSO (Sigma, Cat. D2650). 5.8×10^6 genomic equivalents of HBV were added into the medium.
At 24 hours post-infection, the cells were gently washed with PBS and refreshed with PHH culture medium supplemented with 1% DMSO, and 0.25 mg/mL Matrix gel (Corning, Cat. 356237) at 200 μL per well. All plates were immediately placed in at 37° C. CO2 incubator.
24 hours later, serial dilutions of compounds made with DMSO were further diluted with the same culture medium (PHH culture medium supplemented with 1% DMSO and 0.25 mg/mL Matrix gel as described above) before they were added to the cells to reach desired final compound concentrations and 1% DMSO concentration. The medium containing the compounds were refreshed every three days.
At 9 days post-compound treatment, extracellular HBsAg level were measured with Chemiluminescence Immuno Assay (CLIA) kit (Autobio, HBsAg Quantitative CLIA). Extracellular HBV DNA was extracted by MagNA Pure 96 system (Roche) and then determined by quantitative PCR with the following primers and probe: […]
HBsAg IC50 and HBV DNA IC50 values were derived from the dose-response curve using 4 parameter logistic curve fit method. The compounds of formula (I) have HBsAg IC50<20 μM, particularly <1 μM; and HBV DNA IC50<50 μM.

Compound	IC50 [1] [µM]	Clearance of Human microsome [2] [L/h/kg]	IC50 [3] [µM]
Cc1ccc(-c2cc(=O)c3cccc(Cl)c3o2)c(O[C@H]2C[C@H](C(=O)NS(=O)(=O)C3CC3)C2)c1 [Example B052-B, Trans-3-[2-(8-chloro-4-oxo-chromen-2-yl)-5-methyl-phenoxy]-N-cyclopropylsulfonyl-cyclobutanecarboxamide]	16.3	0.369	7.98
O=C(O)CCOc1cc(Br)cnc1-c1cc(=O)c2cccc(Cl)c2o1 [Example A026, 3-[[5-bromo-2-(8-chloro-4-oxo-chromen-2-yl)-3-pyridyl]oxy]propanoic acid]	2.97	0.369	2.97
Cc1cc(-c2cc(=O)c3cccc(Cl)c3o2)c(OCCC(=O)O)cc1Cl [Example A005, 3-[5-chloro-2-(8-chloro-4-oxo-chromen-2-yl)-4-methyl-phenoxy]propanoic acid]	1.37	0.4	0.553
Cc1cc(-c2cc(=O)c3cccc(Cl)c3o2)c(OCCCC(=O)O)cc1Cl [Example A057, 4-[5-chloro-2-(8-chloro-4-oxo-chromen-2-yl)-4-methyl-phenoxy]butanoic acid]	1.33	0.369	9.76
Cc1ccc(-c2cc(=O)c3cccc(Cl)c3o2)c(OCCO[C@H]2C[C@@H](C(=O)O)C2)c1 [Example C038-A, Cis-3-[2-[2-(8-chloro-4-oxo-chromen-2-yl)-5-methyl-phenoxy]ethoxy]cyclobutanecarboxylic acid]	0.643	0.369	8.61
O=C(O)C1CC(OCCCOc2cc(C(F)(F)F)ccc2-c2cc(=O)c3cccc(Cl)c3o2)C1 (stereo not drawn) [Example C103, 3-[3-[2-(8-chloro-4-oxo-chromen-2-yl)-5-(trifluoromethyl)phenoxy]propoxy]cyclobutanecarboxylic acid]	2.28	0.369	7.56
Cc1cc(-c2cc(=O)c3cccc(Cl)c3o2)c(OCCCOCC(=O)O)cc1Br [Example C011, 2-[3-[5-bromo-2-(8-chloro-4-oxo-chromen-2-yl)-4-methyl-phenoxy]propoxy]acetic acid]	10.6	0.369	8.5
O=c1cc(-c2cc3c(cc2OCCO[C@H]2C[C@@H](C(=O)O)C2)OCO3)oc2c(Cl)cccc12 [Example C043-A, Cis-3-[2-[[6-(8-chloro-4-oxo-chromen-2-yl)-1,3-benzodioxo1-5-yl]oxy]ethoxy]cyclobutanecarboxylic acid]	2.68	0.369	8.67
O=c1cc(-c2ccccc2O[C@H]2C[C@@H](C(=O)O)C2)oc2c(Cl)cccc12 [Example B002-A, cis-3-[2-(8-chloro-4-oxo-chromen-2-yl)phenoxy]cyclobutanecarboxylic acid]	0.162	0.369	2.02
COc1cc(O[C@H]2C[C@H](C(=O)NS(C)(=O)=O)C2)c(-c2cc(=O)c3cccc(Cl)c3o2)cc1C [Example B050-B, Trans-3-[2-(8-chloro-4-oxo-chromen-2-yl)-5-methoxy-4-methyl-phenoxy]-N-methylsulfonyl-cyclobutanecarboxamide]	6.08	0.461	9.46
O=C(O)C1CC(Oc2cc(OC(F)(F)F)c(Br)cc2-c2cc(=O)c3cccc(Cl)c3o2)C1 (stereo not drawn) [Example B007, 3-[4-bromo-2-(8-chloro-4-oxo-chromen-2-yl)-5-(trifluoromethoxy)phenoxy]cyclobutanecarboxylic acid]	2.31	0.369	2.24
O=c1cc(-c2ccc(OC(F)(F)F)cc2O[C@H]2C[C@@H](C(=O)O)C2)oc2c(Cl)cccc12 [Example B015-A, Cis-3-[2-(8-chloro-4-oxo-chromen-2-yl)-5-(trifluoromethoxy)phenoxy]cyclobutanecarboxylic acid]	3.79	0.369	2.57
O=C(O)[C@@H]1C[C@H](Oc2cc(Br)ccc2-c2cc(=O)c3cccc(Cl)c3o2)CN1S(=O)(=O)c1ccccc1 [Example B082]	1.98	0.369	4.8
O=c1cc(-c2cc(F)ccc2OCCO[C@H]2C[C@H](C(=O)O)C2)oc2c(Cl)cccc12 [Example C033-B, Trans-3-[2-[2-(8-chloro-4-oxo-chromen-2-yl)-4-fluoro-phenoxy]ethoxy]cyclobutanecarboxylic acid]	0.927	0.369	4.33
O=c1cc(-c2ccc(Br)cc2O[C@H]2C[C@@H](C(=O)O)C2)oc2c(Cl)ccc(O)c12 [Example B036-A, Cis-3-[5-bromo-2-(8-chloro-5-hydroxy-4-oxo-chromen-2-yl)phenoxy]cyclobutanecarboxylic acid]	0.926	0.369	9.5
O=C1CCCN1c1ccc(-c2cc(=O)c3cccc(Cl)c3o2)c(OCCO[C@H]2C[C@@H](C(=O)O)C2)c1 [Example C063-A, Cis-3-[2-[2-(8-chloro-4-oxo-chromen-2-yl)-5-(2-oxopyrrolidin-1-yl)phenoxy]ethoxy]cyclobutanecarboxylic acid]	4.95	0.545	6.61
Cc1ccc(-c2cc(=O)c3cccc(Cl)c3o2)c(O[C@H]2C[C@@H](C(=O)NS(C)(=O)=O)C2)c1 [Example B051-A, Cis-3-[2-(8-chloro-4-oxo-chromen-2-yl)-5-methyl-phenoxy]-N-methylsulfonyl-cyclobutanecarboxamide]	6.18	0.369	3.21
O=C(O)CCOc1cc(OC(F)(F)F)ccc1-c1cc(=O)c2cccc(Br)c2o1 [Example A022, 3-[2-(8-bromo-4-oxo-chromen-2-yl)-5-(trifluoromethoxy)phenoxy]propanoic acid]	0.983	0.369	0.754
O=C(O)COCCCOc1cc2c(cc1-c1cc(=O)c3cccc(Cl)c3o1)OCO2 [Example C015, 2-[3-[[6-(8-chloro-4-oxo-chromen-2-yl)-1,3-benzodioxo1-5-yl]oxy]propoxy]acetic acid]	7.87	0.369	3.36
O=C(O)C(O)COc1cc(C(F)(F)F)ccc1-c1cc(=O)c2cccc(Cl)c2o1 (stereo not drawn) [Example B073, 3-[2-(8-chloro-4-oxo-chromen-2-yl)-5-(trifluoromethyl)phenoxy]-2-hydroxy-propanoic acid]	1.04	0.369	5.97
COc1cc(OCCO[C@H]2C[C@@H](C(=O)O)C2)c(-c2cc(=O)c3c(C(F)(F)F)ccc(Cl)c3o2)cc1OC [Example C096, Cis-3-[2-[2-[8-chloro-4-oxo-5-(trifluoromethyl)chromen-2-yl]-4,5-dimethoxy-phenoxy]ethoxy]cyclobutanecarboxylic acid]	3.48	0.369	7.78

From US11708344B2, “Flavone derivatives for the treatment and prophylaxis of hepatitis B virus disease” (Hoffmann-La Roche Inc., priority 2018, dated 2023)
